# Experiment: lactic acid amount in plasma after loading of exercise
# Type: in vivo
# Details: Test Example 2; mice, 200 mg/kg oral (total amount); 1 hour after loading of exercise (FIG. 6)
# Method: Further, when 1 hour passed after the loading of exercise, the blood was collected and the plasma was separated, and the lactic acid amount in the plasma was measured. The measurement of lactic acid amount was carried out with a commercially available kit (trade name: “F-kit L-lactic acid”; manufactured by Beringer Mannheim Co.). […] Further, when 1 hour passed after the loading of exercise, the blood was collected and the plasma was separated, and the lactic acid amount in the plasma was measured in the same manner as in TEST EXAMPLE 1.
structure (smiles),measurement,value
"O=C[C@H](O)[C@H](O)[C@H](O)CO [ribose, D-ribose]","lactic acid amount in the plasma, decrease as compared with the control group",29.4%

# Reference: patent US6855727B2, “Muscular fatigue-controlling composition and method for providing muscular fatigue-controlling effect” (Yaizu Suisankagaku Industry Co., Ltd., priority 2000, dated 2005)
